Measurements published in patent publication US20080269161A1, “Compositions and Methods Relating to Mitochondrial Hyperpolarization in Neurological Disease” (priority 2005, published 2008).
“Also recorded” adds a separate entry of the source. Where two headings read alike, the source gives them in different places.

Tests used:
[1] = tested on: mitochondrial membrane potential of rat cortical neurons; type: cell-based
Procedure: Curve fits are non-formulaic software interpolations of the data points.
Changes in mitochondrial function that could be associated with the increased vesicular activity were evaluated. Mitochondria generate the energy for synaptic transmission in the form of ATP, and as a byproduct of this oxidative phosphorylation, they are also one of the primary producers of intracellular ROS. Two key mitochondrial parameters were examined in response to Tat and PAF: 1) mitochondrial membrane potential (ΔΨm) [as assessed by mitochondrial uptake of the lipophilic cationic dyes tetramethylrhodamine ethyl or methyl ester (TMRE or TMRM respectively)], and 2) ATP production (as measured by luciferase assay). The electronegative mitochondrial membrane potential provides the driving force for calcium buffering and ATP production by the mitochondria, and as such, ΔΨm is frequently used as an indicator of mitochondrial health and energetic capacity. Moreover, fluctuations in ΔΨm can trigger mitochondrial release of pro-apoptotic factors, an event most frequently associated with a loss of ΔΨm.
Monitoring alterations in ΔΨm with TMRM: In the relevant methods described herein, changes in mitochondrial membrane potential (ΔΨm) in response to Tat or PAF treatment is assessed by TMRM, which must equilibrate across the plasma membrane before entering the mitochondria; and in whole cell applications dye concentration in the mitochondria is dependent on both plasma membrane potential (ΔΨp) and AΨm. At sufficiently low dye concentrations (TMRM =1 nM, i.e. high cell/dye ratio) and normal membrane potentials, ≧95% of the dye is in the mitochondria, and ≦1% in the media, which results in an approximately 100× sensitivity of the dye to ΔΨm over ΔΨp, given equivalent changes in plasma or mitochondrial membrane potential [Rottenberg, H. and S. Wu, Biochim Biophys Acta, 1998. 1404(3): p. 393-40].
For these methods, primary rodent neurons are treated with reagent under normal culture conditions for the indicated time period, followed by removal of the media, 1×2 minute wash in pre-warmed 37° C. HBSS plus 10 mM glucose and 10 mM HEPES (HBSS+), then incubation in HBSS+ with 1 nM TMRE/M. Following equilibration of the dye for 20 minutes to ensure distribution across the mitochondrial membrane, the cells are imaged while remaining in the 1 nM TMRE/M solution, as is necessary for a continued dye equilibrium state. Random field images are taken using an Olympus IX-70 microscope and 40× objective (fluorescent excitation: 545; emission: 610) and Apogee KX32ME CCD camera, and the mean relative fluorescent unit (RFU) value of the neuronal soma and processes (excluding mitochondria deficient regions) is quantified using Scanalytics IPLab software.

[2] = tested on: CA1 pyramidal neurons in hippocampal slices; design: species or system rodent
Procedure: CA1 pyramidal neurons were exposed to 1 μM cPAF or vehicle for 30-60min and simultaneously imaged and recorded by whole-cell patch clamp before and after delivery of a high-frequency stimulus (HFS: three 1s, 100 Hz trains, every 20 s) applied to Schaffer collateral axons via a bipolar stimulating electrode planted in the stratum radiatum. (A) Dendrite beading in a cPAF-exposed cell 45min after HFS, with no disruption of dendrite or spine morphology in control cells. […] (C) Excitatory synaptic transmission between Shaffer collateral axons and CA1 pyramidal neurons is strongly potentiated following HFS in control slices. […] (EPSP traces at baseline and 40 min from representative control cell and cPAF-treated beaded cell are at right.) […]
Explant hippocampal slices are exposed to HIV-1 neurotoxins±agents that reverse mitochondrial hyperpolarization. Beading and LTP are then be measured:
Hippocampal slice preparation: Brains from anesthetized P14-28 rodents are rapidly removed and cooled in sucrose based artificial cerebrospinal fluid (ACSF) containing in mM: 110 sucrose, 60 NaCl, 3 KCl, 1.25 NaH2PO4, 28 NaHCO3, 10 D-glucose, 0.5 CaCl2, 7 MgSO4, 0.6 ascorbate. The brains are blocked and fixed to a specimen stage with cyanoacrylate. Coronal slices (250-400 μm in thickness) are cut with a vibroslicer (World Precision Instruments, Fla., USA) equipped with a Peltier cooling system. The middle four to six slices of each hippocampus (with the entorhinal cortex removed) are placed into a holding chamber prior to use.
Measuring dendritic beading and postsynaptic potentials in single CA1 cells in hippocampal slices: Dendritic arbors of individual CA1 pyramidal cells are imaged while simultaneously recording excitatory postsynaptic potentials in the same cell by patch clamp recordings in whole-cell configuration. Recording pipettes ([…] resistance) are pulled from 1.5 mm borosilicate glass using a horizontal Flaming/Brown micropipette puller (Sutter Instrument Co, Calif.), fire-polished, and filled with intracellular recording solution (in mM: KCl 20, potassium gluconate 130, EGTA 0.5, HEPES 10, MgSO4 2, ATP 2.5, GTP 0.5, pH 7.3). In order to visualize dendrites of the recorded cell, Alexa 568 hydrazide (30 μM) is included in the recording pipette and is injected by small negative current pulses for 15-20 min prior to recording in order to fill the dendritic arbor. Hippocampal slices are bathed in artificial CSF (containing, in mM: NaCl 125, KCl 2.5, NaH2PO4 1.25, NaHCO3 25, CaCl2 2, MgCl2 1, D-glucose 25, oxygenated and buffered with 5% CO2). Membrane potentials of CA1 pyramidal cells are recorded in current clamp mode, and postsynaptic potentials are evoked by test pulses of constant-current stimulation applied via a bipolar stimulating electrode placed 50-200 μm away in the stratum radiatum. Bicuculline (10 μM) is included in the bath to isolate excitatory postsynaptic potentials. After at least 10 min of consistent baseline recording, a high-frequency LTP induction stimulus (HFS, consisting of four 1 s, 100 Hz trains delivered every 15 s) is applied. EPSPs are recorded for 60 min following HFS. At the same time, dendrites are imaged at 40× magnification by fluorescence microscopy, using a shutter to limit fluorescent light exposure and prevent phototoxic injury to the slice. Serial images of dendrites are compared to detect development of focal swellings along dendritic shafts following HFS. Cells are scored as beaded if swellings develop along any of their dendrites.
Field potential recording and induction of LTP in hippocampal slices: Single-cell recordings are complemented by extracellular field potential recordings: while single cell recordings allow correlation of electrophysiologic data with dendritic beading in the same cell, extracellular recordings sample responses from populations of dendrites and are less invasive. […]

[3] = tested on: iNOS expression in human primary monocytes; assay: Tat-induced iNOS expression in primary monocytes; type: cell-based; conditions: for prevention of the anti-inflammatory effects of CGS21680 or IB-MECA, respectively: Tat-treated monocytes, iNOS/NO
Procedure: (§1) The effect of adenosine receptor activation on Tat-induced upregulation of iNOS expression and NO release was then determined. […] In contrast, incubation of cells with 1 μM R-PIA (an adenosine A1 receptor agonist) had no effect on Tat-induced iNOS expression or NO release (FIG. 11), implicating the A2A and A3 receptor subtypes in this anti-inflammatory effect. ZM241385 (an A2AR antagonist) or MRS 1220 (an A3R antagonist) could prevent the anti-inflammatory effects of CGS21680 or IB-MECA, respectively.

[4] = tested on: NO release by human primary monocytes; assay: Tat-induced nitric oxide release by primary monocytes (Griess reaction); type: cell-based; conditions: co-treatment with Tat, 8 h; R-PIA 1 μM
Procedure: Human primary monocytes were treated with Tat in the presence or absence of the indicated adenosine receptor agonists for 8 h, and nitric oxide levels in the culture medium of the cells were then quantitated using the Griess reaction (Active Motif). Data represent mean+SEM of three experiments.
as §1

cortical cultures = assay: Tat-induced apoptotic cell death in cortical cultures
Procedure: Quantifying Cell Death: Cell death is assessed by visualizing fragmented DNA per the TUNEL method as described previously as well [Perry, S. W., et al., J Neurosci Res, 2004. […] Briefly, after treatment in 24 well plates, cells are fixed with Histochoice MB Tissue Fixative (Amresco) then TUNEL-labeled with the ApopTag kit (Chemicon) according to kit instructions. Cells are visualized under Hoffman modulation contrast optics using a 40× objective, and images taken of ten random fields per well from 3 replicate wells per condition. Data is expressed as percent Apoptag-positive neurons [(# Apoptag positive neurons/)(Total neurons))33 100] (or Trypan blue positive neurons where applicable) per field, then field values averaged for a mean cell death value per well. Mean values from 3 or more (see “power” calculations below) wells are averaged for a final mean cell death value for each condition±SEM; the analyses is made without knowledge of the treatment group.

[5] = tested on: rat cerebellar granule neurons (CGNs); assay: Tat-induced apoptosis of cerebellar granule neurons (TUNEL); type: cell-based; conditions: Tat 500 nM, 48 h
Procedure: (§2) CGNs were exposed to HIV-1 Tat (Tat, 500 nM), or vehicle alone (NT), in the presence or absence of the A2A antagonist, ZM241385. After 48 h, cultures were analyzed for the percentage of apoptotic cells using the TUNEL assay. Data represent mean±SEM for one experiment that was performed in triplicate; data are representative of two independent experiments.
as §2, with “(No Tat),” for “(NT),”, “A2AR antagonists, ATL455 and ZM241385, or the A2AR agonists ATL313 and CGS21680.” for “A2A antagonist, ZM241385.”
(1) Primary rat cerebellar granule neurons (CGNs). CGNs represent a highly homogenous population of primary neurons which are susceptible to Tat and PAF-mediated cell killing and have been used in many of previous studies. CGN cells are isolated according to published procedures [Maggirwar, S. B., et al. 1999. J Neurochem 73:578-86] [Tong, N., et al. 2001. Eur J Neurosci 13:1913-22].
78(4): p. […] 22(6): p. 1102-6].
Primary rat cerebellar granule neurons (CGNs) were exposed to a neurotoxic concentration of HIV-1 Tat, in the presence or absence of an A2AR antagonist (ZM241385). […] It is important to note that CGNs express adenosine A2A receptors [Vacas, J., et al. 2003. Brain Res 992:272-280].
Primary cultures of rat cerebellar granule neurons (CGNs) were exposed to HIV-Tat ([…]) alone or together with increasing doses of the A2AR antagonist ATL-455 or A2A agonists ATL313 or CGS21680. Cells are treated with the test compounds for defined time intervals of up to 48 hours (1, 4, 8, 24, and 48 hours).

N#CC(C#N)=NNc1ccc(OC(F)(F)F)cc1 [FCCP, Trifluorocarbonylcyanide Phenylhydrazone]
effect on mitochondrial TMRE/M signal [1]: substantially diminished; also recorded: loss of TMRM signal
effect on ΔΨm [1]: normalizes ΔΨm back to baseline levels but not below
Beading Prediction [2]: Prevented
LTP Prediction [2]: Achieved
Δψm [2]: Normalized
Δψm ([2]; FCCP, no neurotoxin (vehicle)): Slightly

CNC(=O)[C@H]1O[C@@H](n2cnc3c(NCc4cccc(I)c4)ncnc32)[C@H](O)[C@@H]1O [IB-MECA]
inhibition of Tat-induced iNOS expression ([3]; co-treatment with Tat): roughly 50%
effect on Tat-induced NO secretion [4]: complete abrogation

O=C(Cc1ccccc1)Nc1nc2ccc(Cl)cc2c2nc(-c3ccco3)nn12 [MRS 1220]
prevention of the anti-inflammatory effects of CGS21680 or IB-MECA, respectively [3]: prevent

C[C@H](Cc1ccccc1)Nc1ncnc2c1ncn2[C@@H]1O[C@H](CO)[C@@H](O)[C@H]1O [R-PIA]
effect on Tat-induced iNOS expression ([3]; 1 μM): no effect
effect on Tat-induced NO secretion [4]: no effect

CCCCNC(=O)NS(=O)(=O)c1ccc(C)cc1 [Tolbutamide]
effect on ΔΨm, alone ([1]; tolbutamide 100 μM alone): no significant effect
effect on Tat mediated rise in ΔΨm ([1]; tolbutamide 100 μM, Tat 0.1 or 2.5 μg/ml, 1 and 24 hours): blocked; also recorded: completely prevented
toxicity, alone (cortical cultures; tolbutamide 100 μM alone): no toxicity
effect on Tat's induction of apoptotic cell death (cortical cultures; tolbutamide 100 μM, Tat 0.1 or 2.5 μg/ml, 24 hours): attenuating apoptotic cell death; also recorded: partially attenuated

Nc1nc(NCCc2ccc(O)cc2)nc2nc(-c3ccco3)nn12 [ZM241385, 4(2-[7-Amino-2-(2-furyl)[1,2,4]triazolo[2,3-a][1,3,5]triazin-5-ylamino]ethyl)phenol]
prevention of the anti-inflammatory effects of CGS21680 or IB-MECA, respectively [3]: prevent
effect on Tat-induced neuronal apoptosis [5]: protect neurons; also recorded: protects neurons against Tat-induced apoptosis

TNF-α
effect on ΔΨm ([1]; neurotoxin alone): dose dependent increases
